Data reported in patent publication US10961202B2, “Bis-benzimidazole compounds and methods of using the same” (THE SCRIPPS RESEARCH INSTITUTE, priority 2017, dated 2021).
Like-named read-outs stand apart in the source and are kept apart here.

Tests used:
r(CUG)12-MBNL1 complex = assay: Inhibition of the r(CUG)12-MBNL1 complex measured by TR-FRET; type: biochemical; conditions: 80 nM RNA, 60 nM MBNL1-His6
[1] = tested on: MBNL1 exon 5 inclusion in DM1 myotubes; assay: Myotube splicing rescue assay (MBNL1 exon 5 inclusion); type: cell-based, human; conditions: 48-hour incubation
HSALR strain 20b mice [2] = assay: DM1 mouse efficacy study: RT-PCR of MBNL1-dependent splicing targets in gastrocnemius; type: in vivo; conditions: sc, 3 mg/kg qod 5 doses, subcutaneous
Description: HSALR strain 20b mice were used as a model for myotonic dystrophy type I (DM1) experimental studies when testing the efficacy of candidate compounds. To determine the genotype of the mice, the transgene of human skeletal actin (HSA) genomic level was compared to endogenous mouse skeletal actin (MSA) by PCR. Mice with an HSA:MSA ratio of 2:1, homozygous mice were used for the study. Disease phenotype was confirmed in homozygous HSALR by assessing myotonia by pinching the quadriceps of the mouse. […] Homozygous HSALR that have been confirmed by PCR genotyping HSA:MSA ratio and are positive for pinch myotonia were selected for candidate compound efficacy studies for DM1.
For each study, a control group of PBS injected mice was included along with mice test groups injected with the compound to be tested. For a statistical power >80%, five mice were used per group (three females and two males). As previously indicated, homozygous HSALR mice were selected aged 8-12 weeks at the beginning of the study. Littermate mice were evenly distributed across groups in the study. Each cage contained mice from a single group. Female mice from different litters were combined into one cage for a single test group. Male mice cannot be combined in cages with non-littermate mice. If any fighting occurred in cages with multiple mice, the mice with minor/superficial fight wounds were be separated and monitored. Mice with severe fight wounds were removed from the study. Mice were monitored throughout the study for weight changes over time, behavioral changes at time of injection, and any other potential health concerns that arose during the study.
Mice were injected with approximately ˜200 μL solution subcutaneously by 28-gauge syringe. The volume administered was determined by the weight of the mouse where 10 iaL solution is administered per 1 g of the weight of the mouse. The compound was solubilized in DPBS at a concentration of […], which equated to a dose of 0.1-3.0 mg compound per kg weight of the animal (mpk). Mice were weighed once a week, and the volume of administered compound solution (or DPBS) was adjusted accordingly for correct mpk dosing. Once a compound was tested for acute toxicity in FVB wildtype mice, the compound was typically first tested at 3 mpk, injected every other day (q.o.d.) for five doses, and the mice sacrificed 24 hr after the last injection. Candidate compounds were further tested at different dose regimes to further assess the compound's efficacy in DM1 mice.
For each mouse, blood, brain, heart, liver, kidney, tibialis anterior, gastrocnemius, and quadriceps were dissected and collected. After the mouse was euthanized, blood was collected by cardiac puncture and placed in lithium heparin tubes on ice. Plasma was separated by centrifugation and collected. Brain, heart, half of the liver, tibialis anterior, gastrocnemius, and quadriceps were flash frozen in liquid nitrogen. Half of the liver, kidneys, and subset of heart samples were fixed in 10% formalin. One of the two tibialis anterior muscles was frozen with OCT for cyro-sectioning.
Gastrocnemius muscle was used for downstream RNA extraction RT-PCR. […] Half of one gastrocnemius was used for an RNA extraction. The gastrocnemius was homogenized in Trizol reagent and extracted following the protocol of the Zymo Direct-zol RNA Mini Prep Plus kit.
For each RNA sample, 500 ng of RNA was used for a reverse transcription reaction to produce single-stranded cDNA. MBNL1-dependent splicing targets (Clcn1 exon 7a, Mbnl1 exon 5, Sercal exon 22, and Zasp exon 11) and MBNL1-independent splicing targets (Capzb exon 8, Itgb1 exon 17) were assessed by RT-PCR. For the alternative exons listed, forward and reverse primers were designed to amplify the alternative exon along with the flanking constitutive exons such that one primer may produce two PCR products: one PCR product including the alternative exon and one PCR product excluding the alternative exon. […]

HSALR strain 20b mice [3] = assay: as above; type: in vivo; conditions: sc, subcutaneous
[4] = read-out: Clcn1 exon 7a splicing rescue %
[5] = read-out: Mbnl1 exon 5 splicing rescue %
[6] = read-out: Serca1 exon 22 splicing rescue %
[7] = read-out: Zasp exon 11 splicing rescue %
[8] = 7.5 mg/kg qod 8 doses, read-out: Clcn1 exon 7a splicing rescue %
[9] = 7.5 mg/kg qod 8 doses, read-out: Mbnl1 exon 5 splicing rescue %
[10] = 7.5 mg/kg qod 8 doses, read-out: Serca1 exon 22 splicing rescue %
[11] = 7.5 mg/kg qod 8 doses, read-out: Zasp exon 11 splicing rescue %

SMILES | IC50 (r(CUG)12-MBNL1 complex; Table M) [µM] | MBNL1 % splicing rescue at 10 μM [1] [%] | percent splicing rescue at 3 mg/kg (HSALR strain 20b mice [2]; [4]) [%] | percent splicing rescue at 3 mg/kg (HSALR strain 20b mice [2]; [5]) [%] | percent splicing rescue at 3 mg/kg (HSALR strain 20b mice [2]; [6]) [%] | percent splicing rescue at 3 mg/kg (HSALR strain 20b mice [2]; [7]) [%] | IC50 (r(CUG)12-MBNL1 complex; Table L) [µM] | MBNL1 % splicing rescue at 1 μM [1] [%] | other results
CN(C)CCCOc1ccc2nc(-c3cnc(-c4nc5ccc(OCCCN(C)C)cc5[nH]4)cn3)[nH]c2c1 [Compound 274] | 12 | 65.3 | 31.6 | 25.2 | 10.7 | 29.8 | – | – | –
CN(C)CCOc1ccc(-c2nc3cc(-c4ccc5[nH]c(-c6ccc(OCCN(C)C)cc6)nc5c4)ccc3[nH]2)cc1 [Compound 153] | – | 106.1 | – | – | – | – | 29 | 82.1 | percent splicing rescue at 7.5 mg/kg (HSALR strain 20b mice [3]; [8]): 48.4%; percent splicing rescue at 7.5 mg/kg (HSALR strain 20b mice [3]; [9]): 40.8%; percent splicing rescue at 7.5 mg/kg (HSALR strain 20b mice [3]; [10]): 34%; percent splicing rescue at 7.5 mg/kg (HSALR strain 20b mice [3]; [11]): 59.7%
Nc1ccc2nc(-c3ccc(-c4nc5ccc(NC6=NCCN6C6=NCCN6)cc5[nH]4)cc3)[nH]c2c1 [Compound 75, 2-(4-(6-amino-1H-benzo[d]imidazol-2-yl)phenyl)-N-(4,4′,5,5′-tetrahydro-1H-[1,2′-biimidazol]-2-yl)-1H-benzo[d]imidazol-6-amine] | – | 0.0 | – | – | – | – | 3.2 | – | percent splicing rescue at 30 mg/kg (HSALR strain 20b mice [3]; 30 mg/kg qd 7 doses, read-out: Clcn1 exon 7a splicing rescue %): 39.4%; percent splicing rescue at 30 mg/kg (HSALR strain 20b mice [3]; 30 mg/kg qd 7 doses, read-out: Mbnl1 exon 5 splicing rescue %): 93.9%; percent splicing rescue at 30 mg/kg (HSALR strain 20b mice [3]; 30 mg/kg qd 7 doses, read-out: Serca1 exon 22 splicing rescue %): 50%; percent splicing rescue at 30 mg/kg (HSALR strain 20b mice [3]; 30 mg/kg qd 7 doses, read-out: Zasp exon 11 splicing rescue %): 95.6%
CN(C)CCOc1cccc(-c2nc3cc(-c4ccc5[nH]c(-c6cccc(OCCN(C)C)c6)nc5c4)ccc3[nH]2)c1 [Compound 354] | 16.5 | 64.2 | -14 | -0.1 | 0.1 | -0.1 | – | 66.0 | –
CN(C)CCCOc1ccc2nc(-c3ccc(-c4nc5ccc(OCCCN(C)C)cc5[nH]4)cc3)[nH]c2c1 [Compound 58, 3,3′-((2,2′-(1,4-phenylene)bis(1H-benzo[d]imidazole-6,2-diyl))bis(oxy))bis(N,N-dimethylpropan-1-amine)] | – | 79.1 | – | – | – | – | 19.8 | 11.0 | percent splicing rescue at 7.5 mg/kg (HSALR strain 20b mice [3]; [8]): 68.3%; percent splicing rescue at 7.5 mg/kg (HSALR strain 20b mice [3]; [9]): 80.2%; percent splicing rescue at 7.5 mg/kg (HSALR strain 20b mice [3]; [10]): 90.5%; percent splicing rescue at 7.5 mg/kg (HSALR strain 20b mice [3]; [11]): 102%
c1cc2nc(-c3ccc(-c4nc5ccc(OCCCN6CCCCC6)cc5[nH]4)cc3)[nH]c2cc1OCCCN1CCCCC1 [Compound 214] | 25.2 | 119.3 | -31.6 | -17.3 | -5.1 | -12.1 | – | – | –
CN(C)CCCOc1cc2[nH]c(-c3ccc(-c4nc5cc(F)c(OCCCN(C)C)cc5[nH]4)cc3)nc2cc1F [Compound 277, (3-[[2-(4-[6-[3-(dimethylamino)propoxy]-5-fluoro-1H-1,3-benzodiazol-2-yl]phenyl)-5-fluoro-1H-1,3-benzodiazol-6-yl]oxy]propyl)dimethylamine; 2-hydroxypropane-1,2,3-tricarboxylic acid] | 8.29 | 51.0 | 30.3 | 19.9 | 13.2 | 24.2 | – | – | –
CN(C)CCCOc1ccc2nc(-c3ccc(-c4nc5ccc(OCCCN(C)C)cc5[nH]4)c(F)c3)[nH]c2c1 [Compound 286, (3-[[2-(4-[6-[3-(dimethylamino)propoxy]-1H-1,3-benzodiazol-2-yl]-3-fluorophenyl)-1H-1,3-benzodiazol-6-yl]oxy]propyl)dimethylamine] | 14.2 | 96.4 | 65.8 | 70.4 | 40.4 | 60 | – | – | –
CN(C)CCNC(=O)c1ccc(-c2nc3cc(-c4ccc5[nH]c(-c6ccc(C(=O)NCCN(C)C)cc6)nc5c4)ccc3[nH]2)cc1 [Compound 108, 4,4′-(1H,1′H-[5,5′-bibenzo[d]imidazole]-2,2′-diyl)bis(N-(2-(dimethylamino)ethyl)benzamide)] | – | 63.4 | – | – | – | – | 13 | 0.0 | percent splicing rescue at 30 mg/kg (HSALR strain 20b mice [3]; 30 mg/kg qod 8 doses, read-out: Clcn1 exon 7a splicing rescue %): 32.5%; percent splicing rescue at 30 mg/kg (HSALR strain 20b mice [3]; 30 mg/kg qod 8 doses, read-out: Mbnl1 exon 5 splicing rescue %): 57.4%; percent splicing rescue at 30 mg/kg (HSALR strain 20b mice [3]; 30 mg/kg qod 8 doses, read-out: Serca1 exon 22 splicing rescue %): 59.1%; percent splicing rescue at 30 mg/kg (HSALR strain 20b mice [3]; 30 mg/kg qod 8 doses, read-out: Zasp exon 11 splicing rescue %): 50.1%
CN(C)CCCSc1ccc2nc(-c3ccc(-c4nc5ccc(SCCCN(C)C)cc5[nH]4)cc3)[nH]c2c1 [Compound 60, 3,3′-((2,2′-(1,4-phenylene)bis(1H-benzo[d]imidazole-6,2-diyl))bis(sulfanediyl))bis(N,N-dimethylpropan-1-amine)] | – | 80.9 | – | – | – | – | 40 | 18.9 | percent splicing rescue at 7.5 mg/kg (HSALR strain 20b mice [3]; 7.5 mg/kg qod 5 doses, read-out: Clcn1 exon 7a splicing rescue %): 87.7%; percent splicing rescue at 7.5 mg/kg (HSALR strain 20b mice [3]; 7.5 mg/kg qod 5 doses, read-out: Mbnl1 exon 5 splicing rescue %): 95.3%; percent splicing rescue at 7.5 mg/kg (HSALR strain 20b mice [3]; 7.5 mg/kg qod 5 doses, read-out: Serca1 exon 22 splicing rescue %): 86%; percent splicing rescue at 7.5 mg/kg (HSALR strain 20b mice [3]; 7.5 mg/kg qod 5 doses, read-out: Zasp exon 11 splicing rescue %): 88.3%
CN(C)CCCOc1ccc(-c2nc3cc(-c4ccc5[nH]c(-c6ccc(OCCCN(C)C)cc6)nc5c4)ccc3[nH]2)cc1 [Compound 152] | – | 79.8 | – | – | – | – | 10.7 | 85.4 | percent splicing rescue at 7.5 mg/kg (HSALR strain 20b mice [3]; [9]): 40.6%; percent splicing rescue at 7.5 mg/kg (HSALR strain 20b mice [3]; [10]): -19.8%; percent splicing rescue at 7.5 mg/kg (HSALR strain 20b mice [3]; [11]): 46.1%
